Results on four compounds are retold here after patent US6008352A, “1-(isoquinolin-1-yl)-4-(1-phenylmethyl) piperazines; dopamine receptor subtype specific ligands” (Neurogen Corporation, priority 1998, dated 1999).

In one assay the target is D4 receptor. Kind of assay: D4 receptor binding assay (3H-YM 09151-2 displacement). Details: species or system African Green monkey. Particulars: 0.5 nM 3H-YM 09151-2; nonspecific binding with 1 mM spiperone. Here is the method:
(§1) 1. Assay For D2 And D4 Receptor Binding Activity
(§2) Pellets of COS cells containing recombinantly produced D2 or D4 receptors from African Green monkey are used for the assays. The sample is homogenized in 100 volumes (w/vol) of 0.05 M Tris HCl buffer at 4° C. and pH 7.4. The sample is then centrifuged at 30,000×g and resuspended and rehomogenized. The sample is again centrifuged as described above and the final tissue sample is frozen until use. The tissue is resuspended 1:20 (wt/vol) in 0.05 M Tris HCl buffer containing 100 mM NaCl.
(§3) Incubations are carried out at […] and contain 0.4 ml of tissue sample, 0.5 nM ^3 H-YM 09151-2 and the compound of interest in a total incubation of 1.0 ml. Nonspecific binding is defined as that binding found in the presence of 1 mM spiperone; without further additions, nonspecific binding is less than 20% of total binding. Binding characteristics for representative examples of this invention for the D2 and D4 receptor subtypes are shown in Table 2 below for rat striatal homogenates. The binding characteristics of compounds of Formula I for the D4 receptor, expressed in nM, generally range from about 0.5 nanomolar (nM) to about 25 nanomolar (nM). These compounds typically have binding constants for the D2 receptor of from about 200 nM to more than 1000 nM.

A further assay concerns the target T1, D2 receptor (Chlorocebus aethiops, UniProt P52702).
T1 construct: expressed in transfected cells; host or cells: COS cells
As to the kind of experiment: D2 receptor binding assay (3H-YM 09151-2 displacement). Details: species or system African Green monkey. To be noted: 0.5 nM 3H-YM 09151-2; nonspecific binding with 1 mM spiperone. As to the method: as §1, §2, §3

T1 sequence (P52702 whole entry): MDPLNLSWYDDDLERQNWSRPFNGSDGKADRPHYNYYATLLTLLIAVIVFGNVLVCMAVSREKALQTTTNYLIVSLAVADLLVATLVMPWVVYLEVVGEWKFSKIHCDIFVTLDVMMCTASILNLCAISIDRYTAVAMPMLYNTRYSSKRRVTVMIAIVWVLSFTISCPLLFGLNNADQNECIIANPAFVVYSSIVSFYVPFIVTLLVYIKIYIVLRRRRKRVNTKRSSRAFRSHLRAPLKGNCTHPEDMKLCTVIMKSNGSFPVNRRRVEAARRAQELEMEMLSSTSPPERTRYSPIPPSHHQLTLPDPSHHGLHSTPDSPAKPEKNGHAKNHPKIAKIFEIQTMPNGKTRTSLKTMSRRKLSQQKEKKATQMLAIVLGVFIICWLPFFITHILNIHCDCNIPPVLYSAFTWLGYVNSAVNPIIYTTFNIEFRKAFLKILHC

`c1ccc2c(N3CCN(Cc4ccc5c(c4)OCO5)CC3)nccc2c1` [Compound 4]: on D4 receptor, the inhibitory constant (Ki) is 19 nM.

As to `Clc1ccc(CN2CCN(c3nccc4ccccc34)CC2)cc1` [Compound 1], the Ki at D4 receptor came to 5 nM; on D2 receptor it was 556 nM.

Take `Fc1ccc(CN2CCN(c3nccc4ccccc34)CC2)cc1F` [Compound 2]: the Ki came to 13 nM at D4 receptor and 1000 nM on D2 receptor.

As for `Cc1ccc(CN2CCN(c3nccc4ccccc34)CC2)cc1` [Compound 6], the Ki worked out at 9 nM at D4 receptor and 220 nM on D2 receptor.

For orientation: Ki means a measure of affinity in units of concentration, obtained from inhibition or displacement.
